Type in all cases: biochemical
The target of assay [1] is FGFR3 (Homo sapiens, UniProt P22607). Put plainly: LabChip (Caliper) kinase assay, FGFR3. Particulars: read-out: remaining kinase activity (in %) / percentage of inhibition; for inhibition at 0.01 µM: compound at 10 nM; for inhibition at 0.1 µM: compound at 100 nM. As for the experimental part:
(§1) The analysis of kinase activity described here was performed using LabChip (Caliper Life Sciences), specifically the Caliper LC3000 and the EZ Reader II instruments.
(§2) The kinase assay used measures the conversion of a fluorescent peptide (substrate) to a phosphorylated product. The reaction mixture, in a microplate well, is introduced by a capillary in a chip where the non-phosphorylated substrate and the phosphorylated product are separated by […]. The intensity of the fluorescent signal over time is related to the reaction progress. The phosphorylated product migrates quicker than the non-phosphorylated substrate and the signals of the two forms of the peptide appear as differentiated peaks. The Caliper determines the peak height and calculates the ratio of product to the peak sum (P/(P+S)). This value is used to compare wells with compounds and wells with controls and thus determine the % of inhibition for the given product.
(§3) The followings kinases were used for the enzymatic inhibition studies, between brackets the value of the Michaelis-Menten constant, Km, of the ATP (Adenosine triphosphate) for each kinase, in μM: obtained from Carna Biosciences: MAPKAPK2 (4.6), AurA (3.6), AurB (5), PKCζ (3.8), RSK1 (23.3), PRAK (5), Erk1 (33.4), PKD2 (32.1), CK1d (16.3), CHK1 (33), ABL (61.7), FYN (36), LYNa (17), CHK2 (57.8), MET (79.5), LCK (28.5), SRC (38), GSK3β (7.3), Erk2 (62.1), PKACα (1.7), AKT2 (186.1), INSR (871.8), p38a (396.5), AKT1(48), MSK1 (21.2), PKCβ2 (84.8), ROCK2 (3.3), PIM2 (4.9), AMPK (38.6), KDR (164.8), IRAK4 (196.5), SGK1 (121.8), SYK (33.5); obtained from Invitrogen: CDK2 (57.6), BTK (123), HGK (80); obtained from Upstate: MST2 (36.6), PKGα (16), PAK2 (1.9), IGF1R (320), FGFR1 (171), MARK1 (33), CAMK2δ (22.4), c-TAK1 (66), DYRK1a (18.1), CaMK4 (3.9), FLT3 (350), c-Raf (6.2), P70S6K (95).
(§4) The compounds were dissolved in 100% DMSO and were diluted at 25 times the final concentration desired for the assay. In the case of the determination of Cl50, serial dilutions were made to reach eight concentrations and give rise to the inhibition curve. 1 μL of each concentration is transferred, in duplicate to a 384-well microplate. 12 μL of enzymatic buffer is added to each well containing purified kinase (several suppliers as indicated above), 100 mM HEPES, pH 7.5, 1 mM DTT (Calbiochem), 0.002% Brij-35 (Sigma) and also in presence of 10 mM MgCl2 as cofactor, except for INSR and IRAK4 wherein 10 mM MnCl2 is used instead of MgCl2. For the kinases CAMK26 and CAMK4, 1 mM CaCl2 and 6.7 μg/mL of calmodulin are also added. For KDR kinase, 0.05% of the CHAPSO detergent is added. For the c-Raf kinase, 10 mM MnCl2 is added. For PKCβ2 0.02 μg/mL of PS/PMA is added. For PKGα se 10 μM of cGMP (cyclic guanosine monophosphate) is added. The compound and the enzyme are left for 15 minutes preincubation and, then, the following are added to each well: 12 μL of peptide buffer/ATP containing 100 mM HEPES, pH 7.5, 1.5 μM peptide marker with fluorescein (specific for the corresponding kinase), ATP (at concentration KM), and 0.002% Brij-35 to start the reaction. Generally, the reactions are incubated for 1-1.5 h at ambient temperature to obtain an adequate conversion (15-40%) of the peptide to the phosphorylated product. The reactions were ended by the addition of 45 μL of buffer containing 0 mM EDTA. The microplates were read by the LabChip 3000 using a 12-channel LabChip. The P/(P+S) values were obtained as described above and the CI50 curves were generated using XIfit.
For example, the activity of the Dyrk1a kinase is inhibited in 87% by the compound of formula (III) and completely by the compound of formula (XII) when used at a concentration of 10 nM.

For assay [2], the target named is T1, HGK (Homo sapiens, UniProt O95819).
T1 construct: purchased Invitrogen
T1 sequence (O95819 whole entry, species assumed): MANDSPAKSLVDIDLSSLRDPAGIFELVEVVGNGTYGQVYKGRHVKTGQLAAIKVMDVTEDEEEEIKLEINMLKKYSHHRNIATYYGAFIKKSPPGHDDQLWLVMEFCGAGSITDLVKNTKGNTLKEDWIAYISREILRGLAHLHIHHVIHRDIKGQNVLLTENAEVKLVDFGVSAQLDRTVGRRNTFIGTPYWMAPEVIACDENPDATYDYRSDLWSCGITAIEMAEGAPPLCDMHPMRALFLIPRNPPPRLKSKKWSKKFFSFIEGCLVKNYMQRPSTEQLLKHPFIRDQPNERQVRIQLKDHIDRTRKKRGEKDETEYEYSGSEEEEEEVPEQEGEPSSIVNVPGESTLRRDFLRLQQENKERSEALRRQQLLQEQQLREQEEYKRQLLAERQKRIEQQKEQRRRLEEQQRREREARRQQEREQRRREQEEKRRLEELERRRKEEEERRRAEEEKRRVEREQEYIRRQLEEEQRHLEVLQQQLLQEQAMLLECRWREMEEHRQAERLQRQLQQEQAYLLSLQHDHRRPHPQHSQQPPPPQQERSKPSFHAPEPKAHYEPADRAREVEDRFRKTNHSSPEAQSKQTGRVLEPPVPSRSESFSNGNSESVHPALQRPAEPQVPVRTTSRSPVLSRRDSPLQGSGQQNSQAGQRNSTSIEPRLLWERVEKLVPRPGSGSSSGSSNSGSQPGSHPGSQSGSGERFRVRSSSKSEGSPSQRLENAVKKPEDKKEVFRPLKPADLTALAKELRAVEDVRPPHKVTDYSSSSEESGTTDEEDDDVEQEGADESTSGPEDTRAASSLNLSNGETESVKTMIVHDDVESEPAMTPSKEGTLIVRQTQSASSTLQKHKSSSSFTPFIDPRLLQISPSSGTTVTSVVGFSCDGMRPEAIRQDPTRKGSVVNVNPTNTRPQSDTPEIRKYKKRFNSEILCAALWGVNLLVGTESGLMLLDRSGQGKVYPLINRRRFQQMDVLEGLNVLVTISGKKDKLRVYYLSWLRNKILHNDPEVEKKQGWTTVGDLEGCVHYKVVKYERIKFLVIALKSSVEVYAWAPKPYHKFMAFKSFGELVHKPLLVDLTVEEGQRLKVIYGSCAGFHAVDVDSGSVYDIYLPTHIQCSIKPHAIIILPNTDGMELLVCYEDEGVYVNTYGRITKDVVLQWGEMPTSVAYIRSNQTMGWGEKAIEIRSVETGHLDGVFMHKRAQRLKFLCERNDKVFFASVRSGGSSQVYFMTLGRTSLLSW
Put plainly: LabChip (Caliper) kinase assay, HGK. Particulars: for inhibition at 0.01 µM: compound at 10 nM; for inhibition at 0.01 µM / inhibition at 0.1 µM: read-out: remaining kinase activity (in %) / percentage of inhibition; for inhibition at 0.1 µM: compound at 100 nM; for IC50: ATP at Km, read-out: CI50 (the source's name). As for the experimental part:
as §1, §2, §3, §4
Table 9a has the 0150 data obtained in pairs of compound-kinase selected from the compounds of formula (VII), (VIII), (IX), (XVI), (XVII) and (XVIII) after taking inhibition measurements at 100 nM and 10 nM. Those couples that provide >70% of inhibition at 10 nM were consider for measuring its IC50. […]

Assay [3] has as its target T2, Erk2 (Homo sapiens, UniProt P28482).
T2 construct: purchased Carna Biosciences
Put plainly: LabChip (Caliper) kinase assay, Erk2. Particulars: read-out: remaining kinase activity (in %) / percentage of inhibition; for inhibition at 0.01 µM: compound at 10 nM; for inhibition at 0.1 µM: compound at 100 nM. As for the experimental part: as §1, §2, §3
as §4, with “XIfit. […]” for “XIfit.”

Where only a bound is given, the exact number is not on record here.

Chain of FGFR3 (P22607 23-806, species assumed): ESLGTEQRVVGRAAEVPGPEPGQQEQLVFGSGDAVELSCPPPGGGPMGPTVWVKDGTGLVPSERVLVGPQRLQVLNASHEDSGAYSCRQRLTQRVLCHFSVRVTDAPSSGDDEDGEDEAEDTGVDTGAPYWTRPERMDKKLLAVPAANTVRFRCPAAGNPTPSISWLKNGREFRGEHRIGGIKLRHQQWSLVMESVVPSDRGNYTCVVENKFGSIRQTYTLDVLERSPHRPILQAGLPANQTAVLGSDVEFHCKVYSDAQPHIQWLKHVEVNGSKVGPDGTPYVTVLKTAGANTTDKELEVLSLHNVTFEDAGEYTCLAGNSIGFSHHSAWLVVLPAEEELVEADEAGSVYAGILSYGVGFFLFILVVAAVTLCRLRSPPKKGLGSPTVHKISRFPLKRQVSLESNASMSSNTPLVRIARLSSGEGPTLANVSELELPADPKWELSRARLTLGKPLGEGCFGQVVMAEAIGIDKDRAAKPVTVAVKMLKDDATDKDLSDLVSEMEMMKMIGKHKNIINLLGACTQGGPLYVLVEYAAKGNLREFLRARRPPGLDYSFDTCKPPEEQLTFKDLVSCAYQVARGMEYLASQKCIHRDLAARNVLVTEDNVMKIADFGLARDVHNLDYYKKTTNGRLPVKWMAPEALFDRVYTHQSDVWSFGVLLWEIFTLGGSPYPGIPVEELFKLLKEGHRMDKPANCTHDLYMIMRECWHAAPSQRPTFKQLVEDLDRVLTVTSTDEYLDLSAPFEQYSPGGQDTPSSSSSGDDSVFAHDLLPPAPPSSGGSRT
T2 sequence (P28482 whole entry): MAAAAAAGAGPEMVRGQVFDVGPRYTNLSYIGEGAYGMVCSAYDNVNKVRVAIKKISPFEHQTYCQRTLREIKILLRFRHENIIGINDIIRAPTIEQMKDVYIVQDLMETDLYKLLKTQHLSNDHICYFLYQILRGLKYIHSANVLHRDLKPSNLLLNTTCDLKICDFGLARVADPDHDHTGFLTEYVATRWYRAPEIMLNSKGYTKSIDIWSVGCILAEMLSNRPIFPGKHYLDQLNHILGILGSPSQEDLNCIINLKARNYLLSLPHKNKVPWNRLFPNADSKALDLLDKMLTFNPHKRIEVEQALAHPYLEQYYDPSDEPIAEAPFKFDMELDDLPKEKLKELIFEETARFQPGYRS

Regarding `C[C@H]1O[C@@H](n2c3ccccc3c3c4c(c5c6ccccc6[nH]c5c32)CNC4=O)C[C@@H](O)[C@@H]1O` [formula (XV), N^13-1′-β-D-olivosyl-k252c], the inhibition at 0.01 µM is -20% in assay [1], 36% in assay [2] and -4% in assay [3]. In addition, the results for the inhibition at 0.1 µM in assay [1], in assay [2] and in assay [3] were -13%, 89% and -2%, respectively.

Regarding `C[C@@H]1O[C@@H](n2c3ccccc3c3c4c(c5c6ccccc6[nH]c5c32)CNC4=O)[C@H](O)[C@H](O)[C@H]1O` [formula (XII), N^13-1′-β-L-rhamnosyl-k252c], the inhibition at 0.01 µM in assay [1] is -2%; in assay [2] it was 44%; in assay [3] it was -3%. The inhibition at 0.1 µM in assay [1] was -1%; in assay [2] it was 91%; in assay [3] it was -1%.

Turning to `C[C@H]1O[C@@H](n2c3ccccc3c3c4c(c5c6ccccc6[nH]c5c32)C(=O)NC4=O)C[C@@H](O)[C@@H]1O` [formula (VI), N^13-1′-β-D-olivosylarcyriaflavin], the inhibition at 0.01 µM in assay [1] was -8%; in assay [2] it was 35%; in assay [3], -1%. The values for the inhibition at 0.1 µM in assay [1], in assay [2] and in assay [3] were -11%, 83% and 30%, respectively.

In the case of `C[C@]12O[C@H]([C@H](O)[C@H](O)[C@H]1O)n1c3ccccc3c3c4c(c5c6ccccc6n2c5c31)C(=O)NC4=O` [formula (VII), N^12-5′(S)-N^13-1′-(R)-L-rhamnosylarcyriaflavin], in assay [2], the IC50 turned out to be 0.78 nM.

As for `C[C@]12O[C@H](C[C@@H](O)[C@H]1O)n1c3ccccc3c3c4c(c5c6ccccc6n2c5c31)C(=O)NC4=O` [formula (IX), N^12-5′(S)-N^13-1′-(R)-L-digitoxosylarcyriaflavin], the IC50 in assay [2] is over 10 nM.

As to `C[C@]12O[C@H](C[C@@H](O)[C@H]1O)n1c3ccccc3c3c4c(c5c6ccccc6n2c5c31)CNC4=O` [formula (XVIII), N^12-5′(S)-N^13-1′-(R)-L-digitoxosyl-k252c], in assay [2], the IC50 is over 10 nM.

As to `C[C@@H]1O[C@@H](n2c3ccccc3c3c4c(c5c6ccccc6[nH]c5c32)C(=O)NC4=O)C[C@H](O)[C@H]1O` [formula (IV), N^13-1′-β-L-olivosylarcyriaflavin], the values for the inhibition at 0.01 µM in assay [1], in assay [2] and in assay [3] were -6%, 9% and -2%, respectively. Also, the inhibition at 0.1 µM in assay [1] is 3%; in assay [2], 62%; in assay [3], -3%.

For the molecule `C[C@@H]1O[C@@H](n2c3ccccc3c3c4c(c5c6ccccc6[nH]c5c32)CNC4=O)C[C@@H](O)[C@H]1O` [formula (XIV), N^13-1′-β-L-digitoxosyl-k252c], the inhibition at 0.01 µM in assay [1] is -6%; in assay [2], 20%; in assay [3], -4%. Also, the values for the inhibition at 0.1 µM in assay [1], in assay [2] and in assay [3] were -11%, 78% and 0%, respectively.

As to `C[C@@H]1O[C@@H](n2c3ccccc3c3c4c(c5c6ccccc6[nH]c5c32)C(=O)NC4=O)C[C@@H](O)[C@H]1O` [formula (V), N^13-1′-β-L-digitoxosylarcyriaflavin], the inhibition at 0.01 µM in assay [1] is -6%; in assay [2], 54%; in assay [3], -4%. Besides, the results for the inhibition at 0.1 µM in assay [1], in assay [2] and in assay [3] were -1%, 90% and 0%, respectively.

Take `C[C@@H]1O[C@@H](n2c3ccccc3c3c4c(c5c6ccccc6[nH]c5c32)CNC4=O)C[C@H](O)[C@H]1O` [formula (XIII), N^13-1′-β-L-olivosyl-k252c]: the inhibition at 0.01 µM in assay [1] is -4%; in assay [2], 16%; in assay [3], -4%. Besides, the inhibition at 0.1 µM was -6% in assay [1], 76% in assay [2] and 3% in assay [3].

Regarding `C[C@@H]1O[C@@H](n2c3ccccc3c3c4c(c5c6ccccc6[nH]c5c32)C(=O)NC4=O)[C@H](O)[C@H](O)[C@H]1O` [formula (III), N^13-1′-β-L-rhamnosylarcyriaflavin], the inhibition at 0.01 µM in assay [1] is -10%; in assay [2] it was 30%; in assay [3], -6%. In addition, the inhibition at 0.1 µM is -4% in assay [1], 89% in assay [2] and -4% in assay [3].

The values are drawn from patent publication US8598132B2, “Glycosylated indolocarbazoles, method for obtaining same and uses thereof” (Universidad de Oviedo, priority 2008, dated 2013).
